Data as given in patent US20150374673A1, “Combination Therapy for the Treatment of Nosocomial Pneumonia” (priority 2013, published 2015).
Where “and” joins values, the source holds several entries; their conditions need not be identical. Equal entries are not always repeated. Where two headings read alike, the source gives them in different places.

Experiments:
P. aeruginosa [1] = experiment: Neutropenic CD-1 mice with experimental pneumonia (lung infection), exposure response of ceftazidime q2h and avibactam q2h or q8h; assay type: in vivo, Pseudomonas aeruginosa; conditions: for % fT > CT1 q2 / % fT > CT1 q8 / TDD AVI q2h / TDD AVI q8h / log TDD AVI q2h / log TDD AVI q8h: Dose CAZ 16 mg/kg q2h; for % fT > CT1 q2 / % fT > CT1 q8: CT 1 mg/L; for TDD AVI q2h / TDD AVI q8h / log TDD AVI q2h / log TDD AVI q8h: static effect; for factor by which daily dose for static effect was lower q2h than q8h: with ceftazidime q2h
Protocol: CD-1 neutropenic mice were infected with approx. 10^6 cfu in the lung by instillation through the nares under light anaesthesia. […] For avibactam the % time of the dosing interval above a virtual in vivo threshold concentration, CT, % fT>CT, were calculated (CT of 0.25, 1 and 4 mg/L).
Outbred female CD-1 mice (Charles River, Netherlands), 4 to 5 weeks old, weighing 20 to 25 g were used in the experiments. Granulocytopenia was induced by two doses of cyclophosphamide s.c. four days (150 mg/kg) and one day (100 mg/kg) before the infection experiment.
Neutropenic mice were infected with one P. aeruginosa strain per animal. 0.05 mL of bacterial suspension consisting of approximately 10^5-10^6 bacteria was inoculated intra-nasally with a syringe under light anaesthesia with isoflurane. […] All dosing regimens were performed in at least two animals. At t=0 h, 2 mice were humanely sacrificed to determine the initial inoculum just before starting treatment. All other animals were sacrificed at t=24 h unless the welfare of the animals indicated earlier termination was necessary, following animal welfare regulations. Lungs were taken and moved to a pre-cooled 10-mL plastic tube (Transport Tube, Omnilabo, NL) containing 2 mL phosphate buffered saline (PBS; NaCl 8.00 g/L, Na2HPO4*2 H2O 1.44 g/L, KH2PO4 0.26 g/L, pH 7.2-7.4). Subsequently lungs were grounded using an Ultra-Turrax (IKA Labortechnik, Germany). A tenfold dilution series was prepared and 3×10 μL plated (Chromagar, Biomerieux, NL) per dilution. The following day, colonies were counted and the number of cfu per lung calculated.
This regimen was chosen because of the sensitivity to changes in effects of avibactam. The amount of avibactam administered varied in frequency and dose. […] The drug ? effect was determined as the difference between the log10 cfu values at t=24 h and t=0 h (mean value of 2 mice) expressed as dcfu. Free drug concentrations were used in all calculations. […] For avibactam % fT>CT, the % time of the dosing interval above threshold concentration CT were calculated for CT of 0.25, 1 and 4 mg/L. The CT values were chosen based on the activity of avibactam in vitro, 4 mg/L being used in susceptibility testing, but lower concentrations also being active as determined in in vitro checkerboard studies.

Penetration to human ELF = assay type: in vivo; conditions: epithelial lining fluid (ELF)
Gram-negative isolates = experiment: MIC alone compared with MIC in presence of Cmax and 0.5×Cmax of vancomycin and linezolid, all Gram-negative isolates; assay type: cell-based; conditions: with Cmax and 0.5×Cmax of vancomycin and linezolid
Protocol: Initial MIC data were determined by microbroth dilution methods as recommended by CLSI (2012b). Checkerboards were made in accordance with the method given by Pillai et. al., ? Antimicrobial Combinations in Antibiotics, LABORATORY MEDICINE (Lorian Ed., 3rd Ed. (2003)) p. 365-440 as per standard microbroth dilution tests but with agents in combination. […] A final avibactam concentration of 4 mg/L was used throughout the study. Antibacterial agents were combined into microtitre plates using the Evolution III liquid handling system.

P. aeruginosa [2] = experiment: In vivo efficacy, ceftazidime human simulated regimen, neutropenic lung infection model (ICR mice); parameters: species or system Pseudomonas aeruginosa; conditions: 24 h
Protocol: Groups of mice were administered the ceftazidime regimen beginning two hours after the initiation of infection. All doses were administered as 0.2 mL subcutaneous injections and consisted of three 8-hour dosing intervals (i.e. 24 hours). To serve as control animals, an additional group of mice were administered normal saline at the same volume, route, and frequency as the treatment regimen. Harvesting and processing of lungs from each animal was done as previously described and efficacy was defined as the change in bacterial density, calculated as the change in log10 bacterial CFU obtained for treated mice after 24 h from that of that starting densities observed in 0 h control animals.

Pseudomonas aeruginosa = experiment: MIC of ceftazidime-resistant P. aeruginosa strains, microdilution according to ISO guidelines; assay type: cell-based
Protocol: (§1) Seven well-characterized ceftazidime-resistant Pseudomonas aeruginosa strains, obtained from a variety of clinically relevant sources, were used in the experiments as shown in Table 1. MICs were taken from an earlier in vitro checkerboard study (Berkhout & Mouton 2013 CAZ-AVI-M1-061) and were determined by microdilution according to the ISO-guidelines (ISO 2006). This method is CLSI compatible.
as §1, with “[…].” for “Table 1.”, “determined in” for “taken from”, “(AstraZeneca study report #” for “(Berkhout & Mouton 2013”

[3] = q2h and q8h, strains 11 and 18, lung

SMILES: NC(=O)[C@@H]1CC[C@@H]2CN1C(=O)N2OS(=O)(=O)[O-].[Na+] [avibactam, [(2S,5R)-2-carbamoyl-7-oxo-1,6-diazabicyclo[3.2.1]octan-6-yl]hydrogen sulfate]
- efficacy by dosing frequency (P. aeruginosa [1]; avibactam q2h or q8h with ceftazidime q2h, lung): q2h regimen was more efficacious than the q8h regimen
- effect on static % fT>MIC of ceftazidime (P. aeruginosa [1]; lung infection, all strains): reduced
- % fT > CT1 q2, mean (P. aeruginosa [1]; mean of strains 18 and 11 (sd 2.7), lung infection, avibactam q2h): 21.6%
- % fT > CT1 q8, mean (P. aeruginosa [1]; mean of strains 18 and 11 (sd 3.4), lung infection, avibactam q8h): 18.5%
- overall mean % fT>CT 1 mg/L for static effect (P. aeruginosa [1]; [3]): 20.1%
- range of % fT>CT 1 mg/L for static effect (P. aeruginosa [1]; [3]): 16.1-23.5
- % fT > CT1 q2 (P. aeruginosa [1]; strain 11, lung infection, avibactam q2h): 19.7%
- % fT > CT1 q8 (P. aeruginosa [1]; strain 11, lung infection, avibactam q8h): 20.9%
- TDD AVI q2h (P. aeruginosa [1]; strain 11, lung infection): 45.65 mg/kg
- TDD AVI q8h (P. aeruginosa [1]; strain 11, lung infection): 463.29 mg/kg
- log TDD AVI q2h (P. aeruginosa [1]; strain 11, lung infection): 1.66 mg/kg
- log TDD AVI q8h (P. aeruginosa [1]; strain 11, lung infection): 2.67 mg/kg
- factor by which daily dose for static effect was lower q2h than q8h (P. aeruginosa [1]; strain 11, lung): 2.7
- % fT > CT1 q2 (P. aeruginosa [1]; strain 18, lung infection, avibactam q2h): 23.5%
- % fT > CT1 q8 (P. aeruginosa [1]; strain 18, lung infection, avibactam q8h): 16.1%
- TDD AVI q2h (P. aeruginosa [1]; strain 18, lung infection): 56.65 mg/kg
- TDD AVI q8h (P. aeruginosa [1]; strain 18, lung infection): 150.57 mg/kg
- log TDD AVI q2h (P. aeruginosa [1]; strain 18, lung infection): 1.75 mg/kg
- log TDD AVI q8h (P. aeruginosa [1]; strain 18, lung infection): 2.18 mg/kg
- factor by which daily dose for static effect was lower q2h than q8h (P. aeruginosa [1]; strain 18, lung): 10.1
- % fT>CT 1 mg/L estimates for stasis over 24 h (P. aeruginosa [1]; the other two of strains 7, 5, 19 and 1 (not 1 and 19), ceftazidime q2h, lung): 21.4% and 19.4%
- % fT>CT 1 mg/L estimates (P. aeruginosa [1]; two control strains, lung): 22.4% and 21.6%
- Kp (Penetration to human ELF): ~0.3

SMILES: CC(C)(O/N=C(\C(=O)N[C@@H]1C(=O)N2C(C(=O)[O-])=C(C[n+]3ccccc3)CS[C@H]12)c1csc(N)n1)C(=O)O [ceftazidime, (6R,7R)-7-[[(2Z)-2-(2-amino-1,3-thiazol-4-yl)-2-(1-hydroxy-2-methyl-1-oxopropan-2-yl)oxyiminoacetyl]amino]-8-oxo-3-(pyridin-1-ium-1-ylmethyl)-5-thia-1-azabicyclo[4.2.0]oct-2-ene-2-carboxylate pentahydrate]
- MIC alone and in combination (Gram-negative isolates): remained within one doubling dilution in all cases
- Change log CFU Mean (P. aeruginosa [2]; isolate PSA 1-25, control 0 h 6.21, 24 h 10.01): 6.42 log CFU
- Change log CFU Mean (P. aeruginosa [2]; isolate PSA 3-9, control 0 h 6.45, 24 h 7.77): 6.48 log CFU
- Change log CFU Mean (P. aeruginosa [2]; isolate PSA 4-32, control 0 h 5.56, 24 h 9.34): 3.57 log CFU
- Change log CFU Mean (P. aeruginosa [2]; isolate PSA 4-36, control 0 h 6.53, 24 h 9.72): 5.01 log CFU
- Change log CFU Mean (P. aeruginosa [2]; isolate PSA 4-84, control 0 h 6.16, 24 h 9.66): 4.88 log CFU
- Change log CFU Mean (P. aeruginosa [2]; isolate PSA 8-16, control 0 h 5.93, 24 h 9.94): 5.38 log CFU
- Change log CFU Mean (P. aeruginosa [2]; isolate PSA 22, control 0 h 5.99, 24 h 9.15): 4.83 log CFU
- Change log CFU Mean (P. aeruginosa [2]; isolate PSA 28-19, control 0 h 6.46, 24 h 9.8): 5.07 log CFU
- Change log CFU Mean (P. aeruginosa [2]; isolate PSA 37-8, control 0 h 6.02, 24 h 8.26): 3.8 log CFU
- MIC (Pseudomonas aeruginosa; P. aeruginosa isolate no. 1, CAZ-AVI determined at 4 mg/L avibactam): 128 µg/mL
- MIC (Pseudomonas aeruginosa; P. aeruginosa isolate no. 11, CAZ-AVI determined at 4 mg/L avibactam): 128 µg/mL
- MIC (Pseudomonas aeruginosa; Pseudomonas aeruginosa): 128 µg/mL
- MIC (Pseudomonas aeruginosa; Pseudomonas aeruginosa, P. aeruginosa isolate no. 3, CAZ-AVI determined at 4 mg/L avibactam, read-out: MIC): 64 µg/mL
- MIC (Pseudomonas aeruginosa; Pseudomonas aeruginosa, P. aeruginosa isolate no. 7, CAZ-AVI determined at 4 mg/L avibactam, read-out: MIC): 64 µg/mL
- MIC (Pseudomonas aeruginosa; Pseudomonas aeruginosa, P. aeruginosa isolate no. 18, CAZ-AVI determined at 4 mg/L avibactam, read-out: MIC): 32 µg/mL
- MIC (Pseudomonas aeruginosa; Pseudomonas aeruginosa, P. aeruginosa isolate no. 19, CAZ-AVI determined at 4 mg/L avibactam, read-out: MIC): 64 µg/mL
